Patent US20160280699A1, “SUBSTITUTED PHENYLALANINE DERIVATIVES” (BAYER PHARMA AKTIENGESELLSCHAFT, priority 2013, published 2016)
pIC50: −log10 of the molar value. Structures can show the parent of a compound that is named as a salt.

Legend:
Assay type in all cases: biochemical
human factor XIa = biological target: T1, human factor XIa (Homo sapiens, UniProt P03951); test: Measurement of FXIa inhibition (fluorogenic peptide substrate Boc-Glu(OBzl)-Ala-Arg-AMC); conditions: factor XIa from Kordia, 15 min preincubation, 30 min at 22° C., fluorescence
T1 construct: purchased Kordia
T1 sequence (P03951 388-625 limits assumed): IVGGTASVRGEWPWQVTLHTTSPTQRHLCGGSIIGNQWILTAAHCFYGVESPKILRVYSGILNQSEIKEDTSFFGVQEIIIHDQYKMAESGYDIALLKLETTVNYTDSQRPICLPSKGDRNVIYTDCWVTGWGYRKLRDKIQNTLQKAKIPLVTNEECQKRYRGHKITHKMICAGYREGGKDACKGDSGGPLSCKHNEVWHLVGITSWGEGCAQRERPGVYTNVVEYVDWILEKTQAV
T1 sequence (P03951 19-387 partner limits assumed): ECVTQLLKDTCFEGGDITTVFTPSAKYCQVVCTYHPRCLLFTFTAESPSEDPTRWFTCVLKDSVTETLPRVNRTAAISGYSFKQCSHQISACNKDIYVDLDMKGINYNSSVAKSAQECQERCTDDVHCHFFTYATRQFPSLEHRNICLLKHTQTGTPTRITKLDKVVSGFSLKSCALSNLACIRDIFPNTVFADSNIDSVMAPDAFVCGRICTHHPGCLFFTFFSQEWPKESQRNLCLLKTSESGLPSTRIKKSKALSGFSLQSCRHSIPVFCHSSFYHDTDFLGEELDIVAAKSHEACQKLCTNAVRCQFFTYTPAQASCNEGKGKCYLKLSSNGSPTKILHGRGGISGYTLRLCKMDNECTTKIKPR

human plasmin = biological target: T2, human plasmin (Homo sapiens, UniProt P00747); test: Measurement of plasmin inhibition (fluorogenic peptide substrate MeOSuc-Ala-Phe-Lys-AMC); conditions: plasmin from Kordia, 15 min preincubation, 30 min at 22° C., fluorescence
T2 construct: purchased Kordia
T2 sequence (P00747 581-810 limits assumed): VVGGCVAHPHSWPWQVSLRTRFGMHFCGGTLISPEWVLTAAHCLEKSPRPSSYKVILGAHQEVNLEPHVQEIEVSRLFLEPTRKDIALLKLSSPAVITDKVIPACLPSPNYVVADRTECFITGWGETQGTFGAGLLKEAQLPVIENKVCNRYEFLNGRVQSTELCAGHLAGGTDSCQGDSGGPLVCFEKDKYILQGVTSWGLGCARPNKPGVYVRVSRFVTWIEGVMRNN
T2 sequence (P00747 97-580 partner limits assumed): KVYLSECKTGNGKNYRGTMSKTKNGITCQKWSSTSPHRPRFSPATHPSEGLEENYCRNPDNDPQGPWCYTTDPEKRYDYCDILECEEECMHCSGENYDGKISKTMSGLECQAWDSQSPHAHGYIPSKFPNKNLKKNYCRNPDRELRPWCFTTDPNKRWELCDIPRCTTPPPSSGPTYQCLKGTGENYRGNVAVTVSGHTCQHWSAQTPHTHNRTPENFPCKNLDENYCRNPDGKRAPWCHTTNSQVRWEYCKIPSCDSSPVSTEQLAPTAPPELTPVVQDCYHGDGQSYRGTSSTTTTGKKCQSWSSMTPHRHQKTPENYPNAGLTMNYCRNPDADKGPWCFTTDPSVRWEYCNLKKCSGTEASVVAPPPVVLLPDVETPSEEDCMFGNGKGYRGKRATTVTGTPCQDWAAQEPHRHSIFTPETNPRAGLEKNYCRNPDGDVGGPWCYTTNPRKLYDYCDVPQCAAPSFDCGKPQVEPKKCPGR
Procedure: The plasmin inhibition of the inventive substances is determined using a biochemical test system which utilizes the reaction of a peptidic plasmin substrate to determine the enzymatic activity of human plasmin. Here, plasmin cleaves from the peptic plasmin substrate the C-terminal aminomethylcoumarin (AMC), the fluorescence of which is measured. The determinations are carried out in microtitre plates.
Test substances are dissolved in dimethyl sulphoxide and serially diluted in dimethyl sulphoxide (3000 μM to 0.0078 μM; resulting final concentrations in the test: 50 μM to 0.00013 μM). In each case 1 μl of the diluted substance solutions is placed into the wells of white microtitre plates from Greiner (384 wells). […] After 15 min of incubation, the enzyme reaction is started by addition of 20 μl of the plasmin substrate MeOSuc-Ala-Phe-Lys-AMC dissolved in assay buffer (150 μM in assay buffer) from Bachem, the mixture is incubated at room temperature (22° C.) for 30 min and fluorescence is then measured (excitation: 360 nm, emission: 460 nm). The measured emissions of the test batches with test substance are compared to those of control batches without test substance (only dimethyl sulphoxide instead of test substance in dimethyl sulphoxide), and IC50 values are calculated from the concentration/activity relationships.

human and animal plasma = test: Determination of anticoagulatory activity: activated partial thromboplastin time (aPTT) in plasma; conditions: concentration of test substance which brings about a 1.5-fold extension of the aPTT, 37° C., C.K. Prest kit
Method in brief: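 Citrated human or animal plasma (e.g. mouse, rat, rabbit, pig, dog) preincubated 3 min at 37 °C with test substance and cephalin/kaolin PTT reagent. Value is the concentration giving a 1.5-fold aPTT extension.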

Compound | pIC50 (human factor XIa) | pIC50 (human plasmin) | aPTT (human and animal plasma) [µmol/L]
CC1CN(c2ccc(-c3ccc(C[C@H](NC(=O)C4CCC(CN)CC4)C(=O)Nc4ccc(-c5nn[nH]n5)cc4)cc3)cn2)CC(C)O1 (mixture of isomers) [Example 9, N-alpha-{[trans-4-(Aminomethyl)cyclohexyl]carbonyl}-4-{6-[(2RS,6SR)-2,6-dimethylmorpholin-4-yl]pyridin-3-yl}-N-[4-(2H-tetrazol-5-yl)phenyl]-L-phenylalaninamide hydrochloride] | 8.44 | 7.85 | 0.35
CCOC(=O)c1ccc(-c2ccc(C[C@H](NC(=O)[C@H]3CC[C@H](CN)CC3)C(=O)Nc3ccc(-c4nn[nH]n4)cc3)cc2)c(C)n1 [Example 58, Ethyl 5-{4-[(2S)-2-({[trans-4-(aminomethyl)cyclohexyl]carbonyl}amino)-3-oxo-3-{[4-(2H-tetrazol-5-yl)phenyl]amino}propyl]phenyl}-6-methylpyridin-2-carboxylate hydrochloride] | 9.10 | 8.07 | 0.34
